From article PMC10481538, “Bioanalytical method validation and application to a phase 1, double-blind, randomized pharmacokinetic trial of a standardized Centella asiatica (L.) Urban water extract product in healthy older adults” (Frontiers in Pharmacology, 2023)
Several values for one entry are separate records, joined by “and”; a condition that tells them apart may be missing. Identical values can stand only once. Entries after “also recorded” stand apart in the source; their conditions may differ. Like-named read-outs stand apart in the source and are kept apart here.

Legend:
clinical = settings: for AUC(0-t): AUC(0-12)
Method: (§1) To each sample of participant plasma or urine, A. aerogenes sulfatase (2.5 µL; 10–20 units/mL), and E. coli glucuronidase (2.5 µL; ∼5,000–50,000 units/mL) were used to release the analytes from their sulfate and β-D-glucuronic acid esters (Phase II metabolites). For calibration and validation samples, aqueous glycerol (5 µL) was added to mimic the enzymatic hydrolysis. For all analyses, 1% ascorbic acid (10 µL) was added prior to sample work up to limit oxidation. Samples were incubated (37°C) for 20 min and placed on ice to halt enzymatic activity. […] The supernatant was filtered (0.22 µm spinfilter) at 10,000 g for 5 min at 4°C and used for analysis. To optimize peak shape during analysis, the concentration of organic solvent (sample filtrate) was adjusted to a 60:40 ratio with HPLC grade water for TT analysis and a 90:10 ratio with 1% aqueous formic acid for CQA analysis.
(§2) HPLC-MS/MS was performed at the Oregon Health & Science University’s (OHSU) Bioanalytical Shared Resource/Pharmacokinetics Core (Portland, OR, United States). […] Chromatographic separation was achieved using a Poroshell 120 EC18 column (3 mm id × 50 mm; 2.7 µ) and a Poroshell ultra high-performance liquid chromatography (UHPLC) guard column (3.0 mm i.d. Å∼ 5 mm, 2.7 μ) (Agilent, Santa Clara, CA, United States). The injection volume was 20 μL and flow rate was 0.42 mL/min. Gradient elution was performed using a mobile phase of solvent A (water containing 10 mM ammonium acetate and 0.02% ammonium hydroxide; pH 8.5) and solvent B (methanol). […] Chromatographic separation was achieved using a Zorbax Eclipse plus C8 Rapid resolution (4.6 i.d. Å∼ 150 mm, 3.5 μ) column with a Zorbax Eclipse plus C8 Rapid resolution (4.6 i.d. Å∼ 12.5 mm, 5 μ) guard column (Agilent, Santa Clara, CA, United States). The injection volume was 5 μL and flow rate of 0.8 mL/min. Gradient elution was performed using a mobile phase of solvent A (water containing 0.05% v/v acetic acid) and solvent B (acetonitrile with 0.05% v/v acetic acid).
(§3) Briefly, two in-person study visits occurred a minimum of two weeks and a maximum of four weeks apart in which participants orally consumed 2 or 4 g of CAP (in a randomized order) on an empty stomach. Total study duration was eight weeks including follow-up adverse event monitoring. All study procedures were identical for each visit except for the CAP dose administered. Randomization (to prevent tolerance effects) was performed using an arm equivalence design by the OHSU Research Pharmacy. All study personnel were blind to randomization allocation until all data analysis had been finalized. […] Participants fasted for 10 h, excluding water, prior to each study visit and for 2 h after consuming the study intervention to standardize gastrointestinal transit time and minimize food effects. During study visits, participants were provided low-phytochemical snacks and meals by the OCTRI CTRC’s Bionutrition Unit devoid of the foods outlined in Section 2.5. At each study visit, a peripheral intravenous catheter was placed in the arm to allow for repeat blood sampling. Prior to CAP intake, 20 mL of baseline blood and 50 mL of baseline urine were collected. […] Plasma aliquots (2 mL) were frozen and stored at -80°C until analysis. […] A 50 mL aliquot was retained and frozen at −80°C for renal excretion analysis.
(§4) Sample preparation and analysis: Plasma and urine sample preparation and analyte quantification by LC-MS/MS were performed in duplicate for each time point and visit (Sections 2.2–2.4). Due to the possibility of residual interference from the participant’s diet and unique, individual matrix effects, calibration curves were generated for each participant using their baseline plasma collected at the corresponding visit.

[1] = older adults on cholinesterase inhibitors, ref Wright et al., 2022, cited from earlier work
[2] = cited from earlier work; for Cmax: Songvut et al., 2021
[3] = cited from earlier work
[4] = Analyte storage stability in human urine
[5] = Analyte storage stability in human plasma
[6] = Method: as §1, §2, §3, §4
[7] = human, 2 weeks
[8] = encapsulated ECa 233, healthy adults, ref Songvut et al., 2019
[9] = condition 2 freeze-thaw, high concentration
[10] = condition 2 three freeze-thaw cycles, low concentration
[11] = both, human, plasma, po, 2 g, single oral 2 g CAW (CAP), n = 7, mean (SEM)
[12] = both, human, plasma, po, 2 g, Cmax, single oral 2 g CAW (CAP), healthy older adults, n = 7, plasma, mean (SEM), ^ = below LLoQ
[13] = both, human, plasma, po, 2 g, T1/2, single oral 2 g CAW (CAP), n = 7, mean (SEM)
[14] = both, human, plasma, po, 2 g, Tmax, single oral 2 g CAW (CAP), n = 7, mean (SEM)
[15] = both, human, plasma, po, 4 g, single oral 4 g CAW (CAP), n = 7, mean (SEM)
[16] = both, human, plasma, po, 4 g, Cmax, single oral 4 g CAW (CAP), healthy older adults, n = 7, plasma, mean (SEM), ^ = below LLoQ
[17] = both, human, plasma, po, 4 g, T1/2, single oral 4 g CAW (CAP), n = 7, mean (SEM)
[18] = both, human, plasma, po, 4 g, Tmax, single oral 4 g CAW (CAP), n = 7, mean (SEM)
[19] = single oral 2 g CAW (CAP), n = 7, mean (SEM)
[20] = single oral 4 g CAW (CAP), n = 7, mean (SEM)
[21] = condition 1 long-term storage at −80°C, low concentration
[22] = condition 3 overnight storage at 4°C, low concentration
[23] = condition 1 long-term storage at -80°C, low concentration
[24] = condition 2 three freeze-thaw cycles, medium concentration
[25] = condition 3 4°C for 24 h, medium concentration
[26] = condition 2 freeze-thaw, low concentration
[27] = condition 2 freeze-thaw, medium concentration
[28] = condition 1 long-term storage at −80°C, medium concentration

| Compound | Tmax (clinical; both, human, in vivo, po) | Stability, percent of nominal concentration [5, 10] [%] | AUC(0-t) (clinical; [11]) [ng·h/mL] | Cmax (clinical; [12]) [ng/mL] | half-life (clinical; [13]) [min] | Tmax (clinical; [14]) [h] | AUC(0-t) (clinical; [15]) [ng·h/mL] | Cmax (clinical; [16]) [ng/mL] | half-life (clinical; [17]) [min] | Total urinary excretion (12 hr) [6, 19] | Total urinary excretion (12 hr) [6, 20] | Stability, percent of nominal concentration [4, 21] [%] | Stability, percent of nominal concentration [5, 23] [%] | Stability, percent of nominal concentration [4, 27] [%] | T1/2 (clinical; both, human, in vivo, po) | half-life (clinical; both, human, in vivo, po, T1/2) [min] | Tmax (clinical; both, human, in vivo, po, Tmax) [h] | Stability, percent of nominal concentration [4, 28] [%] | other results |
| --- | --- | --- | --- | --- | --- | --- | --- | --- | --- | --- | --- | --- | --- | --- | --- | --- | --- | --- | --- |
| C[C@H]1[C@H](C)CC[C@]2(C(=O)O)CC[C@]3(C)C(=CC[C@@H]4[C@@]5(C)C[C@@H](O)[C@H](O)[C@@](C)(CO)[C@@H]5[C@H](O)C[C@]43C)[C@H]12 [MA, madecassic acid] | 2.2 to 2.8 h | 100 | – | – | – | – | – | – | – | – | – | – | – | – | – | – | – | – | Cmax (clinical; both, human, in vivo, po): 107 to 197 ng/mL; Cmax (clinical; both, human, in vivo, po, 2 g): 210 nM and 107 ng/mL; Tmax (clinical; both, human, in vivo, po, 2 g): 2.4 h; half-life (clinical; both, human, in vivo, po, 2 g): 552 min; Cmax (clinical; both, human, in vivo, po, 4 g): 390 nM and 197 ng/mL; Tmax (clinical; both, human, in vivo, po, 4 g): 2.7 h; half-life (clinical; both, human, in vivo, po, 4 g): 402 min; Cmax ([1]; 2 g CAP): 38 ng/mL; Cmax ([1]; 4 g CAP): 63 ng/mL; Cmax ([2]; ECa 233 250 mg, ref Songvut et al., 2019): 40 ng/mL; Cmax ([2]; ECa 233 500 mg, ref Songvut et al., 2019): 52 ng/mL; Tmax [2, 8]: 1.5 h; Cmax ([2]; read-out: Cmax (molar), ECa 233 250 mg, ref Songvut et al., 2019): 80 nM; Cmax ([2]; read-out: Cmax (molar), ECa 233 500 mg, ref Songvut et al., 2019): 100 nM; Tmax ([3]; capsular form, ref Grimaldi et al., 1990, Leng et al., 2013, Wright et al., 2022): 4 to 4.5 h; Stability, percent of nominal concentration [4, 9]: 80% |
| O=C(O)CCc1ccc(O)c(O)c1 [DHCA, Dihydrocaffeic acid] | – | – | 1.7 | 0.4 | 108 | 6.1 | 1.9 | 0.5 | 114 | 26.8 (10.0) µg | 24.8 (6.1) µg | 70 | 75 | – | – | – | – | – | Tmax (clinical; [18]): 3.2 h; Stability, percent of nominal concentration [4, 22]: 106%; Stability, percent of nominal concentration ([5]; condition 1 long-term storage at -80°C, medium concentration): 75%; Stability, percent of nominal concentration ([5]; condition 2 three freeze-thaw cycles, high concentration): 75%; Stability, percent of nominal concentration [5, 24]: 51%; Stability, percent of nominal concentration [5, 25]: 23% |
| COc1ccc(/C=C/C(=O)O)cc1O [IFA, isoferulic acid] | – | – | 5.3 | 1.5 | 420 | 2.4 | 7.4 | 1.5 | 210 | 65.9 (23.1) µg | – | – | – | 80 | – | – | – | – | Stability, percent of nominal concentration ([4]; condition 1 long-term storage at −80°C, high concentration): 84%; Stability, percent of nominal concentration [4, 26]: less than 115%; Stability, percent of nominal concentration [5, 24]: 117% |
| COc1cc(/C=C/C(=O)O)ccc1O [FA, ferulic acid] | – | – | – | – | – | – | – | – | – | 146.8 (33.5) µg | 137.4 (24.6) µg | 81 | 129 | – | – | – | – | – | Cmax (clinical; single oral 2 g CAW (CAP), healthy older adults, n = 7, plasma, mean (SEM), ^ = below LLoQ): 1.5 (0.3) ng/mL; AUC(0-12) (clinical; [19]): 11.3 (2.9) ng/mL*hr; T1/2 (clinical; [19]): 14.1 (3.9) hr; Tmax (clinical; [19]): 5.9 (1.3) hr; Cmax (clinical; single oral 4 g CAW (CAP), healthy older adults, n = 7, plasma, mean (SEM), ^ = below LLoQ): 1.5 (0.6) ng/mL; AUC(0-12) (clinical; [20]): 9.9 (2.8) ng/mL*hr; T1/2 (clinical; [20]): 2.9 (1.3) hr; Tmax (clinical; [20]): 7.1 (1.2) hr |
| O=C(O)/C=C/c1ccc(O)c(O)c1 [CA, caffeic acid] | 4.5 (1.6) hr | 108 | – | – | – | – | – | – | – | – | – | 211 | – | 129 | 10.3 (3.7) hr | 504 | 5.3 | – | AUC(0-12) (clinical; both, human, in vivo, po): 2.4 (0.6) ng/mL*hr; AUC(0-t) (clinical; both, human, in vivo, po): 1.8 ng·h/mL; Cmax (clinical; both, human, in vivo, po, Cmax): 0.5 ng/mL; Stability, percent of nominal concentration [4, 22]: 224%; Stability, percent of nominal concentration ([4]; condition 3 overnight storage at 4°C, medium concentration): 86%; Stability, percent of nominal concentration ([5]; condition 3 4°C for 24 h, low concentration): 63%; Stability, percent of nominal concentration [5, 25]: 75% |
| O=C(O)CCc1cccc(O)c1 [HPP, 3-(3-hydroxyphenyl) propionic acid] | – | – | 56.8 | 5.8 | 300 | 7.4 | 50.2 | 10.6 | 156 | 223.4 (76.7) µg | 247.9 (73.6) µg | 48 | – | – | – | – | – | 81 | Tmax (clinical; [18]): 5.7 h; Stability, percent of nominal concentration [4, 26]: 96% |
| COc1cc(CCC(=O)O)ccc1O [DHFA, Dihydroferulic acid] | 5.7 (1.5) hr | 97 | – | – | – | – | – | – | – | – | – | 79 | 81 | 84 | 6.6 (3.8) hr | 426 | 5.9 | 67 | AUC(0-12) (clinical; both, human, in vivo, po): 41.0 (12.7) ng/mL*hr; Cmax (clinical; both, human, in vivo, po): 8.1 (2.9) ng/mL; AUC(0-t) (clinical; both, human, in vivo, po): 35.6 ng·h/mL; Cmax (clinical; both, human, in vivo, po, Cmax): 9.3 ng/mL |
| madecassoside [MS] | – | – | – | – | – | – | – | – | – | Not detected | Not detected | 57 | – | 78 | – | – | – | 84 | Detection in plasma (clinical; after 2 or 4 g CAP, oral): not detected; also recorded: below the LoD; Tmax [2, 8]: 1 to 2 h; Stability, percent of nominal concentration [4, 9]: 82% |
| C[C@H]1[C@H](C)CC[C@]2(C(=O)O)CC[C@]3(C)C(=CC[C@@H]4[C@@]5(C)C[C@@H](O)[C@H](O)[C@@](C)(CO)[C@@H]5CC[C@]43C)[C@H]12 [AA, asiatic acid] | 2.8 (0.2) hr | – | – | – | – | – | – | – | – | – | – | – | – | – | 4.9 (1.3) hr | 246 | 2.2 | – | Cmax (clinical; both, human, in vivo, po, Cmax, range over both doses): 174 to 372 ng/mL; Tmax (clinical; both, human, in vivo, po, Tmax, range over both doses): 2.2 to 2.8 h; Total urinary excretion (12 hr) ([6]; in vivo, po): Not detected; Stability, percent of nominal concentration [7]: 111%; Cmax ([1]; 2 g CAP): 123 ng/mL; Cmax ([1]; 4 g CAP): 259 ng/mL; Tmax ([2]; human, in vivo): 1.5 h; Tmax ([3]; in vivo): 4 to 4.5 h |
